The text below walks through data of patent US9273043B2, “TRPV1 antagonists including dihydroxy substituent and uses thereof” (Purdue Pharma L.P., priority 2011, dated 2016).

Data set [1] has as its target T1, human TRPV1 (Homo sapiens (Human), UniProt Q8NER1). The data set can be described thus: Capsaicin-based assay, Protocol 2, TRPV1/CHO cells (hCAP-CHO), Fluo-4 FLIPR. In kind it is cell-based. The settings on record: 100 nM capsaicin, mean ± SEM. The source says:
The TRPV1/CHO cell line was generated as described below. […] The resulting PCR products were purified from agarose gels using Gel Band Purification Kit (GE Healthcare Bioscience) and were subcloned into pCR-Blunt vector (Invitrogen). The cloned cDNA was fully sequenced using a fluorescent dye-terminator reagent (BigDye Terminator ver3.1 Cycle Sequencing Kit, Applied Biosystems) and ABI Prism 3100 genetic analyzer (Applied Biosystems). The pCR-Blunt vector containing the hTRPV1 cDNA was subjected to restriction digestion with EcoR1. The restriction fragment was subcloned into expression vector pcDNA3.1(-) (Invitrogen) and named pcDNA3.1(-)-hVR1 plasmid. The sequence of the cDNA encoding TRPV1 is available at GenBank accession number AJ277028. […] The cells were transfected with the pcDNA3.1(-)-hVR1 plasmid using FuGENE6 (Roche) according to the manufacturer's protocol. 24 hr after transfection, neomycin-resistant cells were selected using 1 mg/mL G418 (Nacalai Tesque). […] The cells expressing hTRPV1 were cultured in the growth medium supplemented with 1 mg/mL G418. […] Capsaicin-based Assay: […] Subsequently, the cells were loaded by incubation in 0.1 mL of wash buffer containing Fluo-4 at 3 μM final concentration. After 1 hour, the cells were washed twice with 0.2 mL wash buffer and resuspended in 0.1 mL wash buffer. The plates were then transferred to a Fluorescence Imaging Plate Reader (Molecular Devices). Fluorescence intensity was monitored for 15 seconds to establish a baseline. […] The final concentration of the compound was adjusted to range from 100 μM to 1.5625 μM. […] Data were collected over the entire time course and analyzed using Excel and the curve-fitting formula GraphPad Prism.

The target of data set [2] is T1, human TRPV1. Kind of data set: pH-based assay, Protocol 2, TRPV1/CHO cells (hpH-CHO), Fura-2 Ca2+ influx. In kind it is cell-based. Conditions: pH 5.0-5.1 (H2SO4), mean ± SEM. The procedure:
For Protocol 2, a Chinese Hamster Ovary cell line (CHO) that has been engineered to constitutively express human recombinant TRPV1 was used (TRPV1/CHO cells). The TRPV1/CHO cell line was generated as described below.
TRPV1/CHO cells were seeded in the 96-well clear-bottom black-wall plate (Nunc) at densities of 1-2×10^4 cells/well and grown in 100 μL of culture medium (alpha-MEM supplemented with 10% FBS, 20 mM HEPES, 1 mg/mL geneticin and 1% antibiotic-antimycotic mixed stock solution) for 1-2 days before the experiment.
(1) Culture medium was removed using an 8-channel-pipette (Rainin, USA) from the 96-well plate and the wells were refilled with 100 μL of loading buffer (20 mM HEPES, 115 mM NaCl, 5.4 mM KCl, 0.8 mM MgCl2, 1.8 mM CaCl2, 13.8 mM D-glucose, 2.5 mM probenecid, pH 7.4) containing 5 μM Fura-2 AM (Dojin, Japan).
(2) The 96-well plate was incubated at 37° C. for 45 min.
(3) The loading buffer was removed from each well. The cells were subsequently washed twice with 150 μL of measuring buffer (20 mM HEPES, 115 mM NaCl, 5.4 mM KCl, 0.8 mM MgCl2, 5.0 mM CaCl2, 13.8 mM D-glucose, 0.1% BSA, pH 7.4) (no probenecid). The wells were then refilled with 80 μL of measuring buffer.
(4) After an incubation at 4° C. for 15 min, the 96-well plate was transferred to a model FDSS-3000 plate reader apparatus (Hamamatsu Photonics K.K., Japan).
(5) The Fura-2 fluorescent intensity was monitored at a wavelength of 340 nm and at 380 nm, respectively, at a rate of 0.5 Hz for a total of 240 seconds. After 16 time points (32 sec) of baseline detection, 20 μL of agonist solution was added to each well. The final volume was 100 μL/well.
(6) Fluorescence intensity ratio refers to the fluorescence intensity at 340 nm over the fluorescence intensity at 380 nm at a particular time point. The baseline was set as the average of the fluorescent intensity ratios for the first 16 time points before the addition of agonist solution. The maximum response was the highest fluorescent intensity ratio during the 60 time points following addition of agonist solution.
(7) Maximal signal ratios from each well were calculated as output data using the FDSS-3000 analysis program. Data were analyzed using Excel (Microsoft) and XLfit (idbs) software.
In an “agonist plate,” two different agonist solutions with different H2SO4 concentrations were used for the pH assay (see, e.g., FIG. 3A of U.S. Patent Application Publication No. US 2009/0170868 A1). For the first half of a 96-well plate one agonist solution was used; for the second half the other agonist solution was used. The agonist solutions were obtained by diluting sulfuric acid (1M H2SO4) with measuring buffer. The concentrations for the two agonist solutions were determined as described above in Section 2 of Protocol 2.
The sulfuric acid concentrations between the two agonist solutions differed by 0.5 mM. In the experiment described in Section 2 of Protocol 2, the sulfuric acid concentrations in the agonist solutions were determined to be 16 mM and 16.5 mM, respectively. After 1:4 dilution of the agonist solutions, the final sulfuric acid concentration was 3.2 mM and 3.3 mM, respectively. The resulting pH value for the pH assay was 5.0 to 5.1.
Test compounds were dissolved in DMSO to yield 1 mM stock solutions. The stock solutions were further diluted using DMSO in […] serial dilution steps with 6 points (1000, 250, 62.5, 15.625, 3.9062, and 0.977 μM). The thereby-obtained solutions were further diluted in measuring buffer (1:100) as 10× stock serial dilutions with a DMSO concentration of 1%. 10 μL of a 10× stock was added into each well of an “antagonist plate” (see step 3.3.(4) below). Thus, the final concentrations of antagonists was as follows: 0.977, 3.906, 15.63, 62.5, 250, and 1000 nM containing 0.1% DMSO (see, e.g., FIG. 3B of U.S. Patent Application Publication No. US 2009/0170868 A1).
Steps (1) and (2) of this Assay were the same as steps 2.2.(1) and 2.2.(2), respectively, of Protocol 2. […]

Data set [3] addresses T1, human TRPV1. Kind of data set: Human TRPV1 heat-based assay, hTRPV1/CHO cells (hHeat-CHO). In kind it is cell-based. The settings on record: temperature ramp 25 to 45 °C, mean ± SEM. The procedure:
Human TRPV1 Heat-based Assay:
CHO cells stably expressing human TRPV1 (hTRPV1) were used. Functional assessment of heat-induced activation of hTRPV1 was carried out in a cell-based Ca^2+ flux assay using ABI7500 Fast Real-Time PCR System as described in Reubish et al., “Functional assessment of temperature-gated ion-channel activity using a real-time PCR machine,” www.BioTechniques.com 47(3):iii-ix (2009), which is hereby incorporated by reference. Briefly, hTRPV1/CHO cells were cultured in growth media in a tissue culture dish at 37° C. in a CO2 incubator. On the day of the assay, culture media were removed and the cells were then detached using 0.05% trypsin at 37° C. with 5% CO2, for 90 s. The detached cells were centrifuged (1000 rpm, 4 min) to remove trypsin-containing supernatant and resuspended in assay buffer (115 mM NaCl, 5.4 mM KCl, 0.8 mM MgCl2.6H2O, 1.8 mM CaCl2.2H2O, 13.8 mM D-glucose, and 20 mM HEPES). Then, the cells were loaded with 5 μM Fluo-4, a Ca^2+ reporter dye, in the presence of 2.5 mM probenecid at 37° C. with 5% CO2, for 45 min. Thereafter, the cells were washed twice with measuring buffer (assay buffer supplemented with 0.1% BSA and 3.2 mM CaCl2) then transferred to a Fast 96-well Reaction Plate (0.1 mL) (Part no. 4346907, MICROAMP, Applied Biosystems, Foster City, Calif.). The cell density was 100,000 cells/24 μL/well. A solution of the compound under test (6 μL/well) was added into each well of the 96-well plate. Thus, the reaction volume per well was 30 μL.
The plates were then placed inside an ABI7500 Fast Real-Time PCR instrument (Applied Biosystems) to read fluorescence at different temperatures using 7500 software, version 2.0.2 (Applied Biosystems). The initial temperature was set at 25° C. for 1 min. followed by a temperature ramp to 45° C. in 100 s to deliver heat to cells. [Ca^2+], response of hTRPV1/CHO cells to heat was determined as: [fluorescence read at 45° C.−fluorescence read at 25° C.].
Compound concentration response curves and IC50 values were analyzed using GraphPad Prism 4 software (GraphPad Software, La Jolla, Calif.).
The IC50 data provided in Table 6 are shown as mean±standard error of the mean; the number of trials conducted for each assay is shown in parentheses except for only a single trial where no number of trials is shown in parentheses.

Data set [4] is described as follows: Aqueous solubility at pH 1.2 and pH 6.8. The class given is physicochemical. Conditions: aqueous solution.
Data set [5] in a line: In vivo assay of body temperature increase (rectal body temperature). Also noted: species or system rat. Conditions: rats, oral, 10 mL/kg of 1 mg/mL in 0.5% methylcellulose; greatest ΔTb versus vehicle control at 0.5, 1 or 2 hrs. The source says:
Hyperthermia or undesirable elevation in animal body temperature is known to be an undesirable side-effect accompanying the administration of certain TRPV1 antagonists (Gavva, “Body-temperature maintenance as the predominant function of the vanilloid receptor TRPV1,” Trends Pharmacol. Sci. 29(11):550-557 (2008)).
Test Animals: Selection of rats (Crl/SD rats, 7 weeks, male) was based on rectal body temperature measured during the morning of the day of dosing as described below. In addition, to minimize spontaneous, stress-induced increases in body temperature, rats were acclimated in advance to both the rectal measurement procedure and to being handled and dosed. All lodging and testing took place in animal care laboratories with constant room temperature and humidity. The rats were free to move and ingest food and water throughout. Each rat was coded with a colored line on the tail, housed in a separate cage, and permitted the normal range of movement. Immediately before each body temperature measurement, a rat was transferred to a measurement cage. To reduce stress which could influence its body temperature, each rat was covered with towels during the measurement. A thermistor probe was then carefully inserted into the rectum of each rat and left in place until the temperature reading on the digital display had stabilized; this value was recorded.
Assay: On the day before dosing, rectal body temperature was measured at 9:00, 10:00, 11:00, 12:30, 13:30, 14:30, and 15:30 o'clock to familiarize the rats with the measurement procedure prior to administration of the test or control treatments. The rats were also dosed by oral gavage without vehicle at 12:30 o'clock to acclimate and familiarize them with the handling and dosing procedure.
On the day of dosing, only rats with rectal body temperatures within the range of from 37.0° C. to 37.7° C. were selected for study. Rectal body temperatures were measured at 9:00, 10:00, and 11:00 o'clock. Rats were excluded from the study if either their rectal body temperature was over 37.9° C. at 10:00 o'clock or was outside the range of from 37.0° C. to 37.7° C. at 11:00 o'clock. The selected rats were divided into several groups based on their rectal body temperatures at 11:00 o'clock. Rectal body temperatures of the selected rats were measured again at 12:30 o'clock and any rat with a rectal body temperature of 38.0° C. or greater was also excluded from the study.
Following assignment to either a test or control group, a test compound or a control was administered to the rats. Each test compound was dissolved in a vehicle of 0.5% aqueous methylcellulose solution and the final concentration of the test compound was adjusted to 1 mg/mL. Each test compound was orally administered once at a dose of 10 mL/kg. The same volume of the control (vehicle only) was administered once to the control group. Rectal body temperatures were measured at the following time points: 0.5, 1, and 2 hrs after administration.
The body temperature increase (ΔTb) for each test compound was calculated by subtracting, at each time point, the average temperature of the control group from the average temperature of the group administered that test compound. The greatest ΔTb obtained for each test compound at any of the time points is shown in Table 11 below, along with the ΔTb of the control.

SMILES strings stand for the structures. Values after ≈ are worked out from the molar mass of the structure shown. Like-named read-outs stand apart in the source and are kept apart here.

T1 sequence (Q8NER1 whole entry, looked up, the tested form may be a part): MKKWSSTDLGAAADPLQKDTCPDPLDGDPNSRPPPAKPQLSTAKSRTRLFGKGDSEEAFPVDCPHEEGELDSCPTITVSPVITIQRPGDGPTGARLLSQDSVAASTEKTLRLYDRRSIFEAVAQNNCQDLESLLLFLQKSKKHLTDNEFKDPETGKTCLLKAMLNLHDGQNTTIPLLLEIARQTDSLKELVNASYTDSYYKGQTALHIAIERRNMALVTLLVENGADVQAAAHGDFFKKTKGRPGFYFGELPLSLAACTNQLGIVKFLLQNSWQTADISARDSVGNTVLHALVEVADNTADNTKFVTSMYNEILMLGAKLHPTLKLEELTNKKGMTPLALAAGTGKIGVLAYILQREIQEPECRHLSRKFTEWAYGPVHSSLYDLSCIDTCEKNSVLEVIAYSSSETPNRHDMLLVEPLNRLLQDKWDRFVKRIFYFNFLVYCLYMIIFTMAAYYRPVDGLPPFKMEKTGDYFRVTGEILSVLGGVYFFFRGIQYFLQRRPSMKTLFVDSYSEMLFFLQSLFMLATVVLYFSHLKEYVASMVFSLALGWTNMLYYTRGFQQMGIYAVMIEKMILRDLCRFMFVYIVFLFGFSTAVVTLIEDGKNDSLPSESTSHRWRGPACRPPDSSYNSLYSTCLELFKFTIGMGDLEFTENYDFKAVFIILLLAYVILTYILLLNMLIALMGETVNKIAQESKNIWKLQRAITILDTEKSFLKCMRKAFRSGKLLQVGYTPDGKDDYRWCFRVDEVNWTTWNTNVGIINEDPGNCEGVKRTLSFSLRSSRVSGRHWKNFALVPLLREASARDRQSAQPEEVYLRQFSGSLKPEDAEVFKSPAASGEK

By IC50 is commonly meant the point on the concentration scale where inhibition reaches its midpoint. Read a high IC50 as weaker potency in that assay. As for `C[C@@H]1CN(c2ncc([C@@H](O)CO)cc2F)CCN1C(=O)Nc1nc2ccccc2s1` [A122(e), (R)—N-(benzo[d]thiazol-2-yl)-4-(5-((R)-1,2-dihydroxyethyl)-3-fluoropyridin-2-yl)-2-methylpiperazine-1-carboxamide], the IC50 on human TRPV1 [1] was found to be 80.6 ± 7.5 nM; against human TRPV1 [2], 5.8 ± 0.7 nM; at human TRPV1 [3], 96 ± 2.4 nM.

As to `C[C@@H]1CN(c2ncc([C@@H](O)CO)cc2F)CCN1C(=O)Nc1nc2ccc(F)cc2s1` [A125(e), (R)-4-(5-((R)-1,2-dihydroxyethyl)-3-fluoropyridin-2-yl)-N-(6-fluorobenzo[d]thiazol-2-yl)-2-methylpiperazine-1-carboxamide], the IC50 was found to be 23.9 ± 3.8 nM against human TRPV1 [1], 0.6 ± 0.2 nM on human TRPV1 [2] and 18.4 ± 0.8 nM against human TRPV1 [3].

As a reminder, the solubility is the concentration that dissolves in the medium under given conditions. Turning to `C[C@H]1CN(c2ncc([C@H](O)CO)cc2F)CCN1C(=O)Nc1nc2cc(F)ccc2s1` [A155(a), (S)-4-{5-[(S)-1,2-Dihydroxyethyl]-3-fluoropyridin-2-yl}-N-(5-fluorobenzo[d]thiazol-2-yl)-2-methylpiperazine-1-carboxamide], the solubility in data set [4] (pH 1.2, simulated gastric fluid, read-out: aqueous solubility at pH 1.2) is more than 50 µM; in data set [4] (pH 6.8, aqueous buffer, read-out: aqueous solubility at pH 6.8), 17 µM (≈ 7.64 µg/mL). Also, the IC50 was 96 ± 18 nM against human TRPV1 [1] and 700 nM against human TRPV1 [3]. Further, in data set [5], the “ΔTb, body temperature increase” value was 0.2 °C.

Turning to `C[C@H](O)[C@@H](O)c1cnc(N2CCN(C(=O)Nc3nc4ccc(F)cc4s3)[C@@H](C)C2)c(F)c1` [BB, (S)-4-{5-[(1S,2S)-1,2-dihydroxypropyl]-3-fluoropyridin-2-yl}-N-(6-fluorobenzo[d]thiazol-2-yl)-2-methylpiperazine-1-carboxamide], the IC50 turned out to be 63.7 ± 13.4 nM at human TRPV1 [1] and 490 nM against human TRPV1 [3]. The “ΔTb, body temperature increase” value in data set [5] came out at 0.5 °C.
